# Assay results as given in patent US9808466B2, “Macrocyclic compounds as protein kinase inhibitors” (Fundación Centro Nacional de Investigaciones Oncologicas …, priority 2011, dated 2017).
# Where two headings read alike, the source gives them in different places.
# Assays:
# PI3K (p110α/p85α) = molecular target: T1, PI3K (p110α/p85α) (Homo sapiens, UniProt P42336); assay: PI3K activity assay (ADP Hunter Plus); assay type: biochemical
# T1 construct: purchased Carna Biosciences 07CBS-0402A
# Method: The kinase activity was measured by using the commercial ADP Hunter™ Plus assay available from DiscoveRx (#33-016), which is a homogeneous assay to measure the accumulation of ADP, a universal product of kinase activity. […] Reaction was carried out for 1 hour at 25° C. Reagent A and B were sequentially added to the wells and plates were incubated for 30 min at 37° C. Fluorescence counts were read in a Victor instrument (Perkin Elmer) with the recommended settings (544 and 580 nm as excitation and emission wavelengths, respectively). Values were normalized against the control activity included for each enzyme (i.e., 100% PI3 kinase activity, without compound). These values were plotted against the inhibitor concentration and were fit to a sigmoid dose-response curve by using the Graphad software.
# mTOR = molecular target: T2, mTOR (Homo sapiens, UniProt P42345); assay: mTOR assay (LanthaScreen kinase activity assay); assay type: biochemical
# T2 construct: purchased Invitrogen PV4754
# Method: The enzymatic mTOR activity was measured using a LanthaScreen™ kinase activity assay (Invitrogen). The enzyme was purchased from Invitrogen (PV4754), as well as the GFP-labeled substrate (4EBP1-GFP; PV4759) and the Tb-anti-p4EBP1(pThr46) antibody (PV4757). The assay was performed in 50 mM HEPES buffer, pH 7.5, containing 1.5 mM MnCl2, 10 mM MgCl2, 1 mM EGTA, 2.5 mM DTT and 0.01% Tween-20. The concentration of the assay components were the following: 0.24 nM mTOR kinase, 400 nM 4EBP1-GFP, […] and serial dilutions of the compound (inhibitor) to be evaluated. After 1 h incubation at room temperature, 20 mM EDTA was used to stop the reaction and terbium-labeled antibody (4 nM) added to detect phosphorylated product. The antibody associates with the phosphorylated product resulting in an increased TR-FRET value. The TR-FRET value (a dimensionless number) was calculated as the ratio of the acceptor signal (GFP, emission at 520 nm) to the donor signal (terbium, emission at 495 nm). Values were plotted against the inhibitor concentration and fitted to a sigmoid dose-response curve using GraphPad software.
# PIM-1 = molecular target: T3, PIM-1 (Homo sapiens, UniProt P11309); assay: PIM-1 biochemical assay (ADP Hunter); settings: PIM1
# T3 construct: histidine tag (C); made in house
# Description: The biochemical assay to measure PIM-1 activity relies on the ADP Hunter assay kit (DiscoveRx Corp., Cat. #90-0077), that determines the amount of ADP as direct product of the kinase enzyme activity.
# The enzyme has been expressed and purified in-house as a recombinant human protein with a C-terminal histidine tag. The protein is active and stable.
# Assay conditions were as indicated by the kit manufacturers with the following adaptations for the kinase activity step: • Kinase assay buffer and assay volume stay as recommended (15 mM HEPES, pH 7.4, 20 mM NaCl, 1 mM EGTA, 0.02% Tween 20, 10 mM MgCl2 and 0.1 mg/ml bovine γ-globulins/75 μl assay volume) • Incubation time and temperature: 60 min at 30° C. • PIM-1 concentration: 50 pg/μl • ATP concentration: 100 μM • PIM-1 substrate peptide: PIMtide ([…]) (SEQIDNO. 1) • Peptide concentration: 60 μM • Positive control for kinase activity inhibition: 1-10 μM Staurosporine • DMSO concentration have to stay below 2% during the kinase reaction
# Assays were performed in either 96 or 384-well plates. The final outcome of the coupled reactions provided by the kit is the release of the fluorescent product Resorufin and has been measured with a multilabel HTS counter VICTOR V (PerkinElmer) using an excitation filter at 544 nm and an emission filter at 580 nm.
# [1] = read-out: PI3K alpha activity, IC50 (semi-quantitative class)
# [2] = read-out: PI3K alpha actual IC50 (in parentheses)
# [3] = read-out: mTOR activity, IC50 (semi-quantitative class)
# [4] = read-out: PIM-1 activity, IC50 (semi-quantitative class)
# [5] = read-out: PIM-1 actual IC50 (in parentheses)
# [6] = read-out: mTOR actual IC50 (in parentheses)
# T3 sequence (P11309 whole entry): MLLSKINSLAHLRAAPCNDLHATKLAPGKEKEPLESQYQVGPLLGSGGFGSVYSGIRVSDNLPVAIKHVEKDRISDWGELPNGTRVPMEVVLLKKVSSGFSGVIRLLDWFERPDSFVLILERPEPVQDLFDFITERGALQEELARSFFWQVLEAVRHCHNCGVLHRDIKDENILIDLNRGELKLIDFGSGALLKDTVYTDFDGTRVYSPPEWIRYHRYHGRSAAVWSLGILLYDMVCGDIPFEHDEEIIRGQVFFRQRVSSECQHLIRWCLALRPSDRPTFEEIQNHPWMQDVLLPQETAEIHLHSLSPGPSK
# T1 sequence (P42336 whole entry): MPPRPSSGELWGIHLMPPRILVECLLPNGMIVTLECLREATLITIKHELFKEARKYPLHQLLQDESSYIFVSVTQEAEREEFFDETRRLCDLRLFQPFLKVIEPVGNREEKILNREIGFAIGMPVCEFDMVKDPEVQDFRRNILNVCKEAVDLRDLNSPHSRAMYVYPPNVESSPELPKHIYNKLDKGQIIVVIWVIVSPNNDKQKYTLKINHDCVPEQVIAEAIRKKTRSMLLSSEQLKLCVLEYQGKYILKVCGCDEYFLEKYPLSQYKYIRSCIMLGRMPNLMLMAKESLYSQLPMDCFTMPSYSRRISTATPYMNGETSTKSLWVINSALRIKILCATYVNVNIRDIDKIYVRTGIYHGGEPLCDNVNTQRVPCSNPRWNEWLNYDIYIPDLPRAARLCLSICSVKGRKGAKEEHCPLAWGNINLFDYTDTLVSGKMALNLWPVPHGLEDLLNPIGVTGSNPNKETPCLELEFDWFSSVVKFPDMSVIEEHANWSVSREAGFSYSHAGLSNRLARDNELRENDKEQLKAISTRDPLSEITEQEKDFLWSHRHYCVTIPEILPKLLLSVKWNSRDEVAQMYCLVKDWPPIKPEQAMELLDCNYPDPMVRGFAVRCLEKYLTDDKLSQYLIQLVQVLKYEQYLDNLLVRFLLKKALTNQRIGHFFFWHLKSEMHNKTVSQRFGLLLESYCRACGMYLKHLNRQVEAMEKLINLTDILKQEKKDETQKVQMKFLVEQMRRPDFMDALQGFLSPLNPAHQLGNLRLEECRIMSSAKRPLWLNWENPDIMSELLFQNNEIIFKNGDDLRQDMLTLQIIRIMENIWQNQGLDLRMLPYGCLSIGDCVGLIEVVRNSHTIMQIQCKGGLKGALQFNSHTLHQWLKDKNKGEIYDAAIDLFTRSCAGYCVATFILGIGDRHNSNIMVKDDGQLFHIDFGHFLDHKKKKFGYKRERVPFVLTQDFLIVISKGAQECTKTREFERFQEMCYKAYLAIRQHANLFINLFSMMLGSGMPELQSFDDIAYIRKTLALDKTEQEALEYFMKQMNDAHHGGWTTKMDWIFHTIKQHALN
# T1 sequence (P27986 whole entry partner): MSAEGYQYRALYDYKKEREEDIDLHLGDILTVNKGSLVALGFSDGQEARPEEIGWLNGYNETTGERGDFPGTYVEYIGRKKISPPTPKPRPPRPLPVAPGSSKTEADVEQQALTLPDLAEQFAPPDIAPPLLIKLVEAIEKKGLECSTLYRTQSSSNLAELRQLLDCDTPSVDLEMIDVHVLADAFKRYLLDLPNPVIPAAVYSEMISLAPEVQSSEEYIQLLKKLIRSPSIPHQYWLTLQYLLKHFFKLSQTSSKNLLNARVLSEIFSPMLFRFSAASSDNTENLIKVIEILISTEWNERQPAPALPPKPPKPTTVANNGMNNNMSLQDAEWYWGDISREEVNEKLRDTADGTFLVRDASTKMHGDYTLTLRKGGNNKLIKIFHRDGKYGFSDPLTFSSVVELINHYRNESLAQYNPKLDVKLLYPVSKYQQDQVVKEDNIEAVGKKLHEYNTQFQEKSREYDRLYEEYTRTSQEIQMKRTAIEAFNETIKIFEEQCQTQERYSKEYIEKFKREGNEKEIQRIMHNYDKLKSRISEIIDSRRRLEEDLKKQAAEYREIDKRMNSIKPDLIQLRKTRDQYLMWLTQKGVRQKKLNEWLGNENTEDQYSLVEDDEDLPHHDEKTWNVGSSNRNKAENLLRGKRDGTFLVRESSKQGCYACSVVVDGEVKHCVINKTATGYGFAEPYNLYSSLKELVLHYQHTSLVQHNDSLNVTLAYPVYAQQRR
# T2 sequence (P42345 1360-2549 limits assumed): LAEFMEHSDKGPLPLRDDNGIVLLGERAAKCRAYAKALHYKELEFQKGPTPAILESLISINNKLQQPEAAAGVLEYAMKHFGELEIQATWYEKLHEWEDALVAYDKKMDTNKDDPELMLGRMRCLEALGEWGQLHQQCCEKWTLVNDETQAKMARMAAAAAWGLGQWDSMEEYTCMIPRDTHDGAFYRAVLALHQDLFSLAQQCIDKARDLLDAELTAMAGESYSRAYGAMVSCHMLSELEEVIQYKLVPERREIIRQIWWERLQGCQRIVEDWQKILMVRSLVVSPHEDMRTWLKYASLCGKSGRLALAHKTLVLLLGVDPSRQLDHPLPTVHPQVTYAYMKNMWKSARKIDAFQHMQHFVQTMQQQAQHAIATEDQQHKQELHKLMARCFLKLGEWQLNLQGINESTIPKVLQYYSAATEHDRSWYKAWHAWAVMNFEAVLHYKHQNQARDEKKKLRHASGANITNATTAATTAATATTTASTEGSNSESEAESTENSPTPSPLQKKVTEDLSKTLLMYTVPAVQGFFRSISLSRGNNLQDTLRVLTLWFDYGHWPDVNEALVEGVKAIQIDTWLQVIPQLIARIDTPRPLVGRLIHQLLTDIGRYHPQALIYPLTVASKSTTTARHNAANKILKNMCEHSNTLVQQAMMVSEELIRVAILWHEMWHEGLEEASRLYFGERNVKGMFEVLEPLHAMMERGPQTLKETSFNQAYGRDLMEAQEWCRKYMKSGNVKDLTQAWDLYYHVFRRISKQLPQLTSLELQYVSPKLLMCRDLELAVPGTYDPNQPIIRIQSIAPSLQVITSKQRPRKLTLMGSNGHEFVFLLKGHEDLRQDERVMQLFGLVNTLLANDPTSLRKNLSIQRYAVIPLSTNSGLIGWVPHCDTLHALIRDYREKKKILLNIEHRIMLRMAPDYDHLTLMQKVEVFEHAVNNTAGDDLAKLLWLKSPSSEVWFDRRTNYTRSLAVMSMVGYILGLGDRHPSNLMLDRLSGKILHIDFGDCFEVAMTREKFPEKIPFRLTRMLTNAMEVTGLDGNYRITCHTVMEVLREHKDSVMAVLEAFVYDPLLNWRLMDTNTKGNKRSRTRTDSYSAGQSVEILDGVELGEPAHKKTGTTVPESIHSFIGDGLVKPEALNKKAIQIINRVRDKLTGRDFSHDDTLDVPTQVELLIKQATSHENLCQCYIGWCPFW
SMILES,IC50 (PI3K (p110α/p85α); [1]) [µM],IC50 (PI3K (p110α/p85α); [2]) [µM],IC50 (mTOR; [3]) [µM],IC50 (PIM-1; [4]) [µM],IC50 (PIM-1; [5]) [µM],IC50 (mTOR; [6]) [µM]
COc1ncc2cc1NS(=O)(=O)c1cccc(c1)C(=O)NCCn1cc(cn1)-c1ncnc3c1SC2=C3C [compound 57],< 0.1,0.0008,0.1 to 1,0.1 to 1,–,–
O=C1NCc2cncc(c2)-c2ncnc3c2SC(=C3)c2cnc(Cl)c(c2)NS(=O)(=O)c2cccc1c2 [compound 58],< 0.1,0.0036,> 1,0.1 to 1,–,–
CC(C)Oc1ncc2cc1NS(=O)(=O)c1cccc(c1)C(=O)NCCn1cc(cn1)-c1ncnc3c1SC2=C3 [compound 59],> 1,–,> 1,> 1,–,–
COc1ncc2cc1NS(=O)(=O)c1cccc(c1)C(=O)NCc1cncc(c1)-c1nc(C(C)C)nc3c1SC2=C3 [compound 60],> 1,–,> 1,> 1,–,–
COc1ncc2cc1NS(=O)(=O)c1cccc(c1)C(=O)NCCn1cc(cn1)-c1nc(C(C)C)nc3c1SC2=C3 [compound 61],> 1,–,> 1,> 1,–,–
COc1ncc2cc1NS(=O)(=O)c1cccc(c1)C(=O)NCc1cncc(c1)-c1ccnc3c1SC2=C3 [compound 62],0.1 to 1,–,> 1,< 0.1,0.031,–
COc1ncc2cc1NS(=O)(=O)c1cccc(c1)C(=O)NC[C@H]1CN(CCO1)c1ncnc3c1SC2=C3 [compound 64],> 1,–,> 1,0.1 to 1,–,–
COc1ncc2cc1NS(=O)(=O)c1cccc(c1)C(=O)NCc1cc(ccc1F)-c1ncnc3c1SC2=C3 [compound 65],0.1 to 1,–,> 1,> 1,–,–
COc1ncc2cc1NS(=O)(=O)c1cccc(c1)C(=O)NC[C@@H]1CN(CCO1)c1ncnc3c1SC2=C3 [compound 66],0.1 to 1,–,> 1,< 0.1,0.088,–
COc1ncc2cc1NS(=O)(=O)c1cc(c(F)cc1F)C(=O)NCc1cccc(c1)-c1cnn3ccc-2nc13 [compound 67],< 0.1,0.0005,< 0.1,> 1,–,0.012
COc1ncc2cc1NS(=O)(=O)c1cccc(c1)C(=O)NCC1=CC=C(O1)c1ncnc3c1SC2=C3 [compound 69],0.1 to 1,–,> 1,0.1 to 1,–,–
COc1ncc2cc1NS(=O)(=O)c1cccc(c1)C(=O)NCCCNc1ncnc3c1SC2=C3 [compound 70],> 1,–,> 1,0.1 to 1,–,–
COc1ncc2cc1NS(=O)(=O)c1cc(c(F)cc1F)C(=O)NCc1cncc(c1)-c1ccnc3ccc-2nc13 [compound 71],< 0.1,0.00015,< 0.1,> 1,–,0.025
COc1ncc2cc1NS(=O)(=O)c1cccc(c1)C(=O)NCc1cc(F)cc(c1)-c1ncnc3c1SC2=C3 [compound 72],> 1,–,> 1,0.1 to 1,–,–
COc1ncc2cc1NS(=O)(=O)c1cccc(c1)C(=O)NCC1=CC=C(S1)c1c(C#N)cnc3c1SC2=C3 [compound 73],> 1,–,> 1,< 0.1,0.045,–
COc1ncc2cc1NS(=O)(=O)c1cccc(c1)C(=O)NCc1csc(c1)-c1ncnc3c1SC2=C3 [compound 77],0.1 to 1,–,> 1,< 0.1,0.017,–
COc1ncc2cc1NS(=O)(=O)c1cccc(c1)C(=O)NCC1=CC=C(S1)c1ccnc3[nH]c-2cc13 [compound 78],0.1 to 1,–,> 1,0.1 to 1,–,–
COc1ncc2cc1NS(=O)(=O)c1cccc(c1)C(=O)NCc1nc(cs1)-c1ncnc3c1SC2=C3 [compound 79],0.1 to 1,–,> 1,> 1,–,–
